We go through six molecules from BindingDB's records for doi:10.1002/cbic.201200272 (Yonsei University, 2012).

As a reminder, the IC50 is the concentration needed to halve the response being measured. A high value points to lower potency. The term Ki denotes the equilibrium dissociation constant of an inhibitor or competing ligand from its target. High values mean weaker binding, low ones tighter binding.

In this assay the target is T1, Pancreatic alpha-amylase (Sus scrofa, UniProt P00690).
T1 sequence (P00690 whole entry): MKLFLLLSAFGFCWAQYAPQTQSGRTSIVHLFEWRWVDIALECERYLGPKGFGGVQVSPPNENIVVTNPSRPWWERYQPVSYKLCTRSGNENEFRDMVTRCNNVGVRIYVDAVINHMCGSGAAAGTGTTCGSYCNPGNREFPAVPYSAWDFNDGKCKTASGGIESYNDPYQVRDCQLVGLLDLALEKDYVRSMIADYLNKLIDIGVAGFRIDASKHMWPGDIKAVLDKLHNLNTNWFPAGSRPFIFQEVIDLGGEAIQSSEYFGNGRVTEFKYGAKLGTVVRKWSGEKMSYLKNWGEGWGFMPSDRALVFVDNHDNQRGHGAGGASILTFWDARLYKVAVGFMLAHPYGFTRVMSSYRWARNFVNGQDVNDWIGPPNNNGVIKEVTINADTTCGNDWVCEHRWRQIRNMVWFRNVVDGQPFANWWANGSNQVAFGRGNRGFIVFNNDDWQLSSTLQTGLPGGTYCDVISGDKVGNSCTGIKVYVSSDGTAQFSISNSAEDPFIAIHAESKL
In words: Enzymatic Activity Assay. The note with it: pH 7; 37 °C. An excerpt:
To test whether GCTs share a common binding pocket on PPA with acarbose, we performed an experiment according to the method of Yonetani and Theorell.
For `OC1[C@H](O)O[C@H](Cn2cc(-c3ccccc3)nn2)[C@@H]1O` (some centres not stated) [GPESB14], the IC50 came out at 88.9 µM and the Ki was determined as 204 µM.
The molecule `OC1[C@H](O)O[C@H](Cn2cc(C3=CCCCC3)nn2)[C@@H]1O` (some centres not stated) [GPESB15] returned an IC50 of 35.8 µM and a Ki of 33.6 µM.
The molecule `CO[C@@H]1O[C@H](Cn2cc(C3=CCCCC3)nn2)[C@@H]2OC(C)(C)OC12` (some centres not stated) [GPESB02] gave an IC50 of 150 µM and an inhibition constant Ki of 342 µM.
Consider `CO[C@@H]1O[C@H](Cn2cc(C3(O)CCCCC3)nn2)[C@@H]2OC(C)(C)OC12` (some centres not stated) [GPESB07], for which the IC50 amounted to 356 µM and affinity was put at a Ki of 1010 µM.
Turning to `CO[C@@H]1O[C@H](Cn2cc(-c3ccccc3)nn2)[C@@H]2OC(C)(C)OC12` (some centres not stated) [GPESB01], the IC50 is 361 µM and the affinity corresponds to a Ki of 780 µM.
The corresponding values for `CO[C@@H]1O[C@H](Cn2cc(COC(C)=O)nn2)[C@@H]2OC(C)(C)OC12` (some centres not stated) [GPESB11] are 125 µM and 234 µM.
